Experimental data taken from article PMC8799717, “Pharmacological targeting PIKfyve and tubulin as an effective treatment strategy for double-hit lymphoma” (Cell Death Discovery, 2022).

What was measured:
Experiment in all cases: biochemical
Set-up in all cases: KINOMEscan active-site-directed competition binding panel, 468 kinases, percent of DMSO control at 1 uM
Conditions in all cases: KINOMEscan binding, percent of DMSO control; read-out: Ctrl%
[1] = molecular target: MELK (Homo sapiens, UniProt Q14680)
Sequence of MELK (Q14680 whole entry): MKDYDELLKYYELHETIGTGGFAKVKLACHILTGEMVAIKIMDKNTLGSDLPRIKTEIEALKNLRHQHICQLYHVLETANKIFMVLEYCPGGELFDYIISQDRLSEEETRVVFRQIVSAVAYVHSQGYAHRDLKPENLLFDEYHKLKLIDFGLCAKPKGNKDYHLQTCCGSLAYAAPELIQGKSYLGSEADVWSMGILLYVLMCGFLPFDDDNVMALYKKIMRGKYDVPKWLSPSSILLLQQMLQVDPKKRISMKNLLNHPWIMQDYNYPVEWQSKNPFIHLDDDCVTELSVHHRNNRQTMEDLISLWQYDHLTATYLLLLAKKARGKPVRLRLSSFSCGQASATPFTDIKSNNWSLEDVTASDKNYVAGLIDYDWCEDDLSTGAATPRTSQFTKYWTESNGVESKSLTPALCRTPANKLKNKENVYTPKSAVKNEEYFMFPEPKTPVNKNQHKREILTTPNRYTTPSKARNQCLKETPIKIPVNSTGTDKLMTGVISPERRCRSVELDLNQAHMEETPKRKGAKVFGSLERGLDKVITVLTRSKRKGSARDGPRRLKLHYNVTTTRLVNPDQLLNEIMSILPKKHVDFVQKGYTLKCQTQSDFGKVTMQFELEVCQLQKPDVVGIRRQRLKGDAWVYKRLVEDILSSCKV

[2] = molecular target: T1, ABL1(M351T)-phosphorylated (Homo sapiens, UniProt P00519, M351T)
T1 construct: phosphorylated

[3] = molecular target: PRKX (Homo sapiens, UniProt P51817)
Sequence of PRKX (P51817 whole entry): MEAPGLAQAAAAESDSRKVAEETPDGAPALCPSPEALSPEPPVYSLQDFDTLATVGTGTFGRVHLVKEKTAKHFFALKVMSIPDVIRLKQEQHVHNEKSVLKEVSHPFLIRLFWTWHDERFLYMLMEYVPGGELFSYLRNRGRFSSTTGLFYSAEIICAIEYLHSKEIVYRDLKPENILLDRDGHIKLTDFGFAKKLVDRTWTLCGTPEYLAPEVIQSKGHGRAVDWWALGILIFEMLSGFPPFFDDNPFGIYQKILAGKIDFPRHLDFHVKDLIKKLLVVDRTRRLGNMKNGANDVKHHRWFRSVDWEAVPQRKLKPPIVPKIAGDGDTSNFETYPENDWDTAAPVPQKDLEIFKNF

[4] = molecular target: ROCK1 (Homo sapiens, UniProt Q13464)
[5] = molecular target: T2, FAK (Homo sapiens, UniProt Q05397)
T2 construct: gene PTK2

[6] = molecular target: T3, TRKA (Homo sapiens, UniProt P04629)
T3 construct: gene NTRK1

[7] = molecular target: T4, PIK4CB (Homo sapiens, UniProt Q9UBF8)
T4 construct: gene PI4KB

[8] = molecular target: T5, MEK3 (Homo sapiens, UniProt P46734)
T5 construct: gene MAP2K3
T5 sequence (P46734 whole entry): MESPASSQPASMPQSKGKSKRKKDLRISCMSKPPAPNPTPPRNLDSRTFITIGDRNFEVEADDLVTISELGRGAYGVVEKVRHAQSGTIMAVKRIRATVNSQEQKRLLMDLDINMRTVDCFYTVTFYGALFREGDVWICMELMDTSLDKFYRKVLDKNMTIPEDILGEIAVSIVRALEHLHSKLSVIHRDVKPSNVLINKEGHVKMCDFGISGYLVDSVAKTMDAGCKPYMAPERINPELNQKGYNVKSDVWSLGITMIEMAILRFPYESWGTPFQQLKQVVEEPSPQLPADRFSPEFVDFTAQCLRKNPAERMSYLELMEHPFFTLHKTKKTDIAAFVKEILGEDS

[9] = molecular target: PAK3 (Homo sapiens, UniProt O75914)
[10] = molecular target: CAMK1G (Homo sapiens, UniProt Q96NX5)
[11] = molecular target: T6, MEK6 (Homo sapiens, UniProt P52564)
T6 construct: gene MAP2K6
T6 sequence (P52564 whole entry): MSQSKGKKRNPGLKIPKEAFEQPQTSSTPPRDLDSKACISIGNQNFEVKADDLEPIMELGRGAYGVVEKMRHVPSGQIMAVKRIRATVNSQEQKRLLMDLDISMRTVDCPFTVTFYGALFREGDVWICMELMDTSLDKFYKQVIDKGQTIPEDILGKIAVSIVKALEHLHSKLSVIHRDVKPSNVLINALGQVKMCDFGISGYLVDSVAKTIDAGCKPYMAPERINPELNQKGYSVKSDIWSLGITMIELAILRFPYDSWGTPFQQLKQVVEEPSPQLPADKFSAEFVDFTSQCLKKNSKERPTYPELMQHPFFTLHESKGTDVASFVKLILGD

[12] = molecular target: T7, JAK3(JH1domain-catalytic) (Homo sapiens, UniProt P52333)
T7 construct: JH1domain-catalytic
T7 sequence (P52333 whole entry): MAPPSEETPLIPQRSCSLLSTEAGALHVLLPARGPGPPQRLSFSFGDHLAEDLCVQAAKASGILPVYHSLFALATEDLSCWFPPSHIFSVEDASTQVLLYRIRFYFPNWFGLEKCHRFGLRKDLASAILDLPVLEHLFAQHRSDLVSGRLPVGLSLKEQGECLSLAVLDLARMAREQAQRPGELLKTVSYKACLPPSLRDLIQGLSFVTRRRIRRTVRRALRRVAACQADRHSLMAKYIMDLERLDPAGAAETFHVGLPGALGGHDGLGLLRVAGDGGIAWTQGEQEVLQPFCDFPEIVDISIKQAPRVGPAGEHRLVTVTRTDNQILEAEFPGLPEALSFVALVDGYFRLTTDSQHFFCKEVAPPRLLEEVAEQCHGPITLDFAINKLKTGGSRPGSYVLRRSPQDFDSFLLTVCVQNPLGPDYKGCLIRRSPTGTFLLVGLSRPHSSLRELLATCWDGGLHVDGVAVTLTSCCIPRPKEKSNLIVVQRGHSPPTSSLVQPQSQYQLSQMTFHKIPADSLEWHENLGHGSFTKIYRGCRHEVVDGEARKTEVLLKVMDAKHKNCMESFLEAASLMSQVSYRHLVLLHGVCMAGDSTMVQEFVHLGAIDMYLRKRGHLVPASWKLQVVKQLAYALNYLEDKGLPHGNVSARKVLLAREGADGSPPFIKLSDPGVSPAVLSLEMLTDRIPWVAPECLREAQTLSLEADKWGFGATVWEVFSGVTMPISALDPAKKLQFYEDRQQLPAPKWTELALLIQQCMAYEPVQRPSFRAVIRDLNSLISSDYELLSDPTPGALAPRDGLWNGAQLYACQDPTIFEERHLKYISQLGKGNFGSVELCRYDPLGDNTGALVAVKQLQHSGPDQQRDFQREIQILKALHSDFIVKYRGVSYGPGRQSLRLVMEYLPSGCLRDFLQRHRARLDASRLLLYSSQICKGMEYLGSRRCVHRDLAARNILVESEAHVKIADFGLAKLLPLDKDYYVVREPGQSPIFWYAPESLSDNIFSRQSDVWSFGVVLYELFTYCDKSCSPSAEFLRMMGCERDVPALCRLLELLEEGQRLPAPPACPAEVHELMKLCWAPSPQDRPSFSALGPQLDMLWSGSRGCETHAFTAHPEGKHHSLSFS

[13] = molecular target: PAK4 (Homo sapiens, UniProt O96013)
Sequence of PAK4 (O96013 whole entry): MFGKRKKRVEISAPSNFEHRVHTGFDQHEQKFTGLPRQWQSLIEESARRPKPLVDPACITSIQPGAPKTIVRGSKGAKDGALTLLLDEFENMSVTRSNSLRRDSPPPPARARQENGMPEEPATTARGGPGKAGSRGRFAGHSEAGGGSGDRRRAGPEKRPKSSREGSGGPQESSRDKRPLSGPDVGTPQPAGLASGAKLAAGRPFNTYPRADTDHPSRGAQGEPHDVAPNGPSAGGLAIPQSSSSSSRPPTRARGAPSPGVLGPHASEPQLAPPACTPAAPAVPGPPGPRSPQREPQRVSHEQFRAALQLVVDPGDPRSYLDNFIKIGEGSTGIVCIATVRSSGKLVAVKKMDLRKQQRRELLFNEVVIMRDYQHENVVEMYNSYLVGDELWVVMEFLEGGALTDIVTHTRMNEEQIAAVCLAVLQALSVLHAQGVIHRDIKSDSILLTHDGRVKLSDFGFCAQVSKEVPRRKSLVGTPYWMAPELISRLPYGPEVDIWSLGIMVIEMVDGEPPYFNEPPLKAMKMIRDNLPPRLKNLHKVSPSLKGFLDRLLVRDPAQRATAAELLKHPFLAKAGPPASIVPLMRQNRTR

[14] = molecular target: T8, ABL1(Y253F)-phosphorylated (Homo sapiens, UniProt P00519, Y253F)
T8 construct: phosphorylated

[15] = molecular target: RET (Homo sapiens, UniProt P07949)
[16] = molecular target: CAMKK2 (Homo sapiens, UniProt Q96RR4)
Sequence of CAMKK2 (Q96RR4 whole entry): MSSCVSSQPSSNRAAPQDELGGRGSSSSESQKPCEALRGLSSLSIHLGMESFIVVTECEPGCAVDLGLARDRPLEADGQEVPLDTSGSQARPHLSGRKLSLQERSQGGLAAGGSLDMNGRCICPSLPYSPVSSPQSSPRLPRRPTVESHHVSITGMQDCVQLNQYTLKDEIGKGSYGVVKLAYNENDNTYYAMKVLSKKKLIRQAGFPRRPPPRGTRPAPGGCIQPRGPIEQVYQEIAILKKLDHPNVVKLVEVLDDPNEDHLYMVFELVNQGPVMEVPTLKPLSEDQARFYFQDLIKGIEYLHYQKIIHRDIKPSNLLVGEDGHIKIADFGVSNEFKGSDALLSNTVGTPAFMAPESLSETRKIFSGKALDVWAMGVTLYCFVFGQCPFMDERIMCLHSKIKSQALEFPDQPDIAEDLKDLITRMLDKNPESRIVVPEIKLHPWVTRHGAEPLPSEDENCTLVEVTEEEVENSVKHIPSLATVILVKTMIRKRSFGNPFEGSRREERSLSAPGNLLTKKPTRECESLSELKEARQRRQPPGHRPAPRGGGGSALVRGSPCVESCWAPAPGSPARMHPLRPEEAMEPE

[17] = molecular target: ULK3 (Homo sapiens, UniProt Q6PHR2)
[18] = molecular target: PLK2 (Homo sapiens, UniProt Q9NYY3)
Sequence of PLK2 (Q9NYY3 whole entry): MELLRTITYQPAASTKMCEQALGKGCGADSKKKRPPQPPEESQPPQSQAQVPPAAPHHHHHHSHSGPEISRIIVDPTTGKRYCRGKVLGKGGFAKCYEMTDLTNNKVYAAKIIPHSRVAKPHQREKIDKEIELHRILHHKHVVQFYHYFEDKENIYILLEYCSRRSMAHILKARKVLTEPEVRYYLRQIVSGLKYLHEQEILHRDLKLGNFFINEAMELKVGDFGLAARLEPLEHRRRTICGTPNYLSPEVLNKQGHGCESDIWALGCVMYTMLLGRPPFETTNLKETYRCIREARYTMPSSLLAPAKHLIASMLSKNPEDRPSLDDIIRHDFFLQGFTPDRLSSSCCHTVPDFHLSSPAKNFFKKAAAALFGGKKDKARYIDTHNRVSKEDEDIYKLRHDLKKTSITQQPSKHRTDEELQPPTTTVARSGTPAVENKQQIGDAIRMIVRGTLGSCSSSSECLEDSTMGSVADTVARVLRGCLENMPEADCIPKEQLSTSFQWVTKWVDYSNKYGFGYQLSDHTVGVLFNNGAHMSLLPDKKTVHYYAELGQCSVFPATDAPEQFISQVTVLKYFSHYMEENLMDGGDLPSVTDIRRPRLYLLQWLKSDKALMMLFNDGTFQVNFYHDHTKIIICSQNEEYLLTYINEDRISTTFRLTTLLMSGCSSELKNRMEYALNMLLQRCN

[19] = molecular target: AAK1 (Homo sapiens, UniProt Q2M2I8)
[20] = molecular target: PIM3 (Homo sapiens, UniProt Q86V86)
[21] = molecular target: T9, ABL1(F317I)-phosphorylated (Homo sapiens, UniProt P00519, F317I)
T9 construct: phosphorylated

[22] = molecular target: BMPR1A (Homo sapiens, UniProt P36894)
[23] = molecular target: TEC (Homo sapiens, UniProt P42680)
[24] = molecular target: FLT3(ITD,F691L) (Homo sapiens, UniProt P36888, F691L/ITD)

Cc1ccc(NC(=O)c2cccc(C(F)(F)F)c2)cc1Nc1cc(-c2cccnc2)nc2[nH]ccc12 [HZX-02-059]
remaining binding at 1 µM [1]: 96% | remaining binding at 1 µM [2]: 48% | remaining binding at 1 µM [3]: 100% | remaining binding at 1 µM [4]: 100% | remaining binding at 1 µM [5]: 98% | remaining binding at 1 µM [6]: 100% | remaining binding at 1 µM [7]: 78% | remaining binding at 1 µM [8]: 83% | remaining binding at 1 µM [9]: 27% | remaining binding at 1 µM [10]: 100% | remaining binding at 1 µM [11]: 88% | remaining binding at 1 µM [12]: 100% | remaining binding at 1 µM [13]: 95% | remaining binding at 1 µM [14]: 49% | remaining binding at 1 µM [15]: 90% | remaining binding at 1 µM [16]: 93% | remaining binding at 1 µM [17]: 91% | remaining binding at 1 µM [18]: 99% | remaining binding at 1 µM [19]: 87% | remaining binding at 1 µM [20]: 89% | remaining binding at 1 µM [21]: 55% | remaining binding at 1 µM [22]: 69% | remaining binding at 1 µM [23]: 96% | remaining binding at 1 µM [24]: 100%
